Data from patent US12435090B2, “Compounds, pharmaceutical compositions, and methods of preparing compounds and of their use” (Repare Therapeutics Inc., priority 2021, dated 2025).
pIC50: −log10 of the molar value.

Biological target: recombinant human Myt1 (Homo sapiens (Human), UniProt Q99640)
Assay: Myt1 enzymatic assay (ADP-Glo kinase assay)
Format: biochemical
Conditions: 18 nM enzyme, 10 uM ATP
Procedure: Detection of Myt1 kinase activity utilized a recombinant human Myt1 kinase assay measuring the hydrolysis of ATP using a commercially available ADP-Glo Assay (ADP-Glo™ Kinase Assay from Promega, 10 000 assays, #V9102). […] After this, 5 μL of compounds (diluted in reaction buffer to 0.5% DMSO) was added to the microplate and the plate was spun briefly and incubated at 22° C. for 15 minutes. Ultra-Pure Adenosine Triphosphate (ATP) solution (ADP-Glo kit from Promega) was diluted in reaction buffer and 5 μL was added to the microplate, spun down briefly and incubated for 60 minutes at 30° C. […] After the 60-minute incubation, 15 µL of ADP-Glo reagent was added and the plate was spun briefly and sealed and incubated in the dark for 40 minutes at 22° C. […] Luminescence was read using the Envision (250 ms integration). The IC50 and the % max inhibition were calculated for each inhibitor compound tested.

Sequence of recombinant human Myt1 (Q99640 whole entry): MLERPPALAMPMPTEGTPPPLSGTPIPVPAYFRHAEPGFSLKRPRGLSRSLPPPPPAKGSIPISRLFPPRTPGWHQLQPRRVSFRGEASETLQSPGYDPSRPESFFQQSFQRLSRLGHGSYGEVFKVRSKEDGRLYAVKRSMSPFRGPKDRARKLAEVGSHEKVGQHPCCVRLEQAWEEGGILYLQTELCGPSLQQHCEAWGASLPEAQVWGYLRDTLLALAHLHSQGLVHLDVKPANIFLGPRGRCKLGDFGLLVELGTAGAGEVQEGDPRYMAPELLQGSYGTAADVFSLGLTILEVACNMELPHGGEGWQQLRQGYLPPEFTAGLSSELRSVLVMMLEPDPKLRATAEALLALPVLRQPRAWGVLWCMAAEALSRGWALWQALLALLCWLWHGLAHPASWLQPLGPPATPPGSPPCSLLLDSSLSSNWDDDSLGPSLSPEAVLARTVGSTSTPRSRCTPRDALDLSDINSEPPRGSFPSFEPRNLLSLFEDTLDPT

Row | SMILES | pIC50
1 | Cc1ccc(O)c(C)c1-n1c(N)c(C(N)=O)c2cc(Br)c(C)nc21 [Compound 187] | > 8.00
2 | Cc1ccc(O)c(C)c1-n1c(N)c(C(N)=O)c2nc(C3CCC3)cnc21 [Compound 173, 6-amino-2-cyclobutyl-5-(3-hydroxy-2,6-dimethyl-phenyl) pyrrolo[2,3-b]pyrazine-7-carboxamide] | > 8.00
3 | Cc1ccc(O)c(C)c1-n1c(N)c(C(N)=O)c2nc(-c3nc(C)c(C)s3)cnc21 [Compound 32] | > 8.00
4 | Cc1ccc2[nH]ncc2c1-n1c(N)c(C(N)=O)c2nccnc21 [Compound 329] | 5.88
5 | Cc1ccc(O)c(C)c1-n1c(N)c(C(N)=O)c2cc(Br)cnc21 [Compound 141] | > 8.00
6 | Cc1cc2c(-c3c(C)ccc(O)c3C)c(N)c(C(N)=O)n2cc1C [Compound 338, 2-amino-1-(3-hydroxy-2,6-dimethylphenyl)-6,7-dimethylindolizine-3-carboxamide] | 6.97
7 | NC(=O)c1c(N)n(-c2cccc3[nH]ncc23)c2ncc(-c3ncc(F)cc3F)nc12 [Compound 333, 6-amino-2-(3,5-difluoro-2-pyridyl)-5-(1H-indazol-4-yl)pyrrolo[2,3-b]pyrazine-7-carboxamide] | 7.28
8 | Cc1ccc(O)c(C)c1-n1c(N)c(C(N)=O)c2cc(I)cnc21 [Compound 319] | > 8.00
9 | Cc1ccc(O)c(C)c1-n1c(N)c(C(N)=O)c2c(Cl)c(Cl)cnc21 [Compound 316] | > 8.00
10 | NC(=O)c1c(N)n(-c2cccc3[nH]ncc23)c2nccnc12 [Compound 277, 6-amino-5-(1H-indazol-4-yl)pyrrolo[2,3-b]pyrazine-7-carboxamide] | 5.86
11 | Cc1cnc(O)cc1-n1c(N)c(C(N)=O)c2nc(C)c(C)nc21 [Compound 169, 6-amino-5-(2-hydroxy-5-methyl-4-pyridyl)-2,3-dimethyl-pyrrolo[2,3-b]pyrazine-7-carboxamide] | 5.76
12 | Cc1ccc(O)c(C)c1-n1c(N)c(C(N)=O)c2nc(C3CCCCC3)cnc21 [Compound 83] | > 8.00
13 | Cc1ccc2[nH]ncc2c1-n1c(N)c(C(N)=O)c2cc(Cl)cnc21 [Compound 335] | 7.40
14 | Cc1ccc(O)c(C)c1-n1cc(C(N)=O)c2cc(C3CC3)cnc21 [Compound 143] | > 8.00
15 | Cc1ccc(O)c(C)c1-n1c(N)c(C(N)=O)c2ncc(C#CCC3CCOCC3)nc21 [Compound 222] | > 8.00
16 | Cc1ccc(O)c(C)c1-n1c(N)c(C(N)=O)c2nc(N3CC4CCC(C3)O4)cnc21 [Compound 92] | > 8.00
17 | Cc1cc2c(C(N)=O)c(N)c(-c3c(C)ccc(O)c3C)n2cc1C [Compound 336, 2-amino-3-(3-hydroxy-2,6-dimethylphenyl)-6,7-dimethylindolizine-1-carboxamide] | 7.42
18 | Cc1ccc(O)c(C)c1-n1c(N)c(C(N)=O)c2nc(C3CC3)c(C)nc21 [Compound 100] | > 8.00
19 | CNC(=O)C1CCN(c2cnc3c(n2)c(C(N)=O)c(N)n3-c2c(C)ccc(O)c2C)CC1 [Compound 46, 6-amino-5-(3-hydroxy-2,6-dimethyl-phenyl)-2-[4-(methylcarbamoyl)-1-piperidyl]pyrrolo[2,3-b]pyrazine-7-carboxamide] | > 8.00
20 | CCCCc1cnc2c(n1)c(C(N)=O)c(N)n2-c1cccc2[nH]ncc12 [Compound 331] | 5.88
21 | Cc1ccc(O)c(C)c1-n1c(N)c(C(N)=O)c2cccnc21 [Compound 328] | > 8.00
22 | Cc1ccc(O)c(C)c1-n1c(N)c(C(N)=O)c2c(C)c(Cl)cnc21 [Compound 313] | > 8.00
23 | Cc1ccc(O)c(C)c1-n1c(N)c(C(N)=O)c2cc(C3=CCOCC3)cnc21 [Compound 304] | > 8.00
24 | Cc1ccc(O)c(C)c1-n1c(N)c(C(N)=O)c2nc(-c3ccncn3)cnc21 [Compound 57] | > 8.00
25 | Cc1ccc2c(C(N)=O)c(N)n(-c3c(C)ccc(O)c3C)c2n1 [Compound 193] | > 8.00
26 | NC(=O)c1c(N)n(-c2cccc3[nH]ncc23)c2ncc(Cl)cc12 [Compound 334, 2-amino-5-chloro-1-(1H-indazol-4-yl)pyrrolo[2,3-b]pyridine-3-carboxamide] | 7.30
27 | Cc1ccc(O)c(C)c1-n1c(N)c(C(N)=O)c2nc(C(C)(C)F)cnc21 [Compound 178, 6-amino-2-(1-fluoro-1-methyl-ethyl)-5-(3-hydroxy-2,6-dimethyl-phenyl) pyrrolo[2,3-b]pyrazine-7-carboxamide] | > 8.00
28 | Cc1ccc(O)c(C)c1-n1c(N)c(C(N)=O)c2nc(N3CCC(C(=O)N(C)C)CC3)cnc21 [Compound 80] | > 8.00
29 | C=C(C)c1cnc2c(n1)c(C(N)=O)c(N)n2-c1c(C)ccc(O)c1C [Compound 202] | > 8.00
30 | Cc1ccc(O)c(C)c1-n1cc(C(N)=O)c2cc(Cl)ccc21 [Compound 346, 5-chloro-1-(3-hydroxy-2,6-dimethylphenyl)-1H-indole-3-carboxamide] | 6.63

More lines, now with the values ahead:

Row | pIC50 | SMILES
31 | > 8.00 | Cc1ccc(-c2cnc3c(n2)c(C(N)=O)c(N)n3-c2c(C)ccc(O)c2C)nc1 [Compound 61]
32 | > 8.00 | CC(=O)N1CCN(c2cnc3c(n2)c(C(N)=O)c(N)n3-c2c(C)ccc(O)c2C)CC1 [Compound 87]
33 | > 8.00 | Cc1ccc(O)c(C)c1-n1c(N)c(C(N)=O)c2nc(-c3ccc(F)cn3)cnc21 [Compound 64]
34 | > 8.00 | Cc1ccc(O)c(C)c1-n1c(N)c(C(N)=O)c2nc(-c3nccs3)c(C)nc21 [Compound 31, 6-amino-5-(3-hydroxy-2,6-dimethyl-phenyl)-3-methyl-2-thiazol-2-yl-pyrrolo[2,3-b]pyrazine-7-carboxamide]
35 | > 8.00 | Cc1ccc(O)c(C)c1-n1c(N)c(C(N)=O)c2nc(-c3nc4ccccc4s3)cnc21 [Compound 248]
36 | > 8.00 | Cc1ccc(O)c(Cl)c1-n1c(N)c(C(N)=O)c2cc(Cl)cnc21 [Compound 327]
37 | > 8.00 | Cc1ccc(O)c(C)c1-n1c(N)c(C(N)=O)c2nc(-c3cnccn3)cnc21 [Compound 38]
38 | > 8.00 | Cc1cn2c(C(N)=O)c(N)c(-c3c(C)ccc(O)c3C)c2nc1C [Compound 337, 7-amino-8-(3-hydroxy-2,6-dimethylphenyl)-2,3-dimethylpyrrolo[1,2-a]pyrimidine-6-carboxamide]
39 | > 8.00 | Cc1ccc(O)c(C)c1-n1c(N)c(C(N)=O)c2nc(-c3c[nH]cn3)cnc21 [Compound 65]
40 | > 8.00 | Cc1ccc(O)c(C)c1-n1c(N)c(C(N)=O)c2cc(S(=O)(=O)C3CC3)cnc21 [Compound 311]
41 | > 8.00 | Cc1ccc(O)c(C)c1-n1c(N)c(C(N)=O)c2nc(-c3ccnc(C(F)(F)F)c3)cnc21 [Compound 35, 6-amino-5-(3-hydroxy-2,6-dimethyl-phenyl)-2-[2-(trifluoromethyl)-4-pyridyl]pyrrolo[2,3-b]pyrazine-7-carboxamide]
42 | > 8.00 | Cc1ccc(O)c(C)c1-n1c(N)c(C(N)=O)c2cc(C#N)cnc21 [Compound 312]
43 | > 8.00 | Cc1ccc(O)c(C)c1-n1c(N)c(C(N)=O)c2nc(-c3ccnnc3)cnc21 [Compound 250]
44 | > 8.00 | Cc1ccc(O)c(C)c1-n1c(N)c(C(N)=O)c2nc(-c3cn(C)cn3)cnc21 [Compound 76]
45 | > 8.00 | Cc1ccc(O)c(C)c1-n1c(N)c(C(N)=O)c2cc(-c3ccccn3)cnc21 [Compound 295]
46 | > 8.00 | Cc1ccc(O)c(C)c1-n1c(N)c(C(N)=O)c2nc(-c3ccns3)cnc21 [Compound 41]
